{"source": "patent US20240343819A1", "about": "“METHODS OF TREATING MULTIPLE MYELOMA” (Seagen Inc., priority 2021, published 2024)", "key": {"[1]": {"conditions": "100 mg BID dose; cited from earlier work"}, "[2]": {"test_system": "patients", "conditions": "cited from earlier work"}, "[3]": {"test_system": "Multiple myeloma cells", "assay": "ADCC with NK effector cells enriched from normal donor PBMC", "format": "cell-based", "conditions": "nirogacestat treated multiple myeloma cells combined with NK effector cells", "excerpt": "(§1) These pre-clinical data supported the combination of SEA-BCMA with nirogacestat in clinical studies."}, "[4]": {"test_system": "Molp-8 MM target cells", "assay": "ADCC 51Cr release assay with donor NK cells", "format": "cell-based", "conditions": "SEA-BCMA titrations, 0.2 μM Nirogacestat vs without, NK:target 10:1, 4h, FcγRIII V/V donor", "description": "Whether the enhanced FcγRIII signaling translated to increased lysis of MM target cells by SEA-BCMA was determined. Molp-8 MM target cells were incubated with and without 0.2 μM Nirogacestat (purchased from SelleckChem) for 24 hrs. Cells were then Na2 [^51Cr] O4 labeled and added to titrations of SEA-BCMA, or isotype antibody control. Effector cells, NK cells enriched from normal donor PBMC, were added at an effector-to-target cell ratio of 10:1 (50,000:5000). Donor NK cells were of the high affinity FcγRIII V/V genotype. The combination of antibodies, NK cells and target cells were incubated for 4h at 37° C. with and without Nirogacestat. The radioactivity released into the culture supernatant of lysed target cells was then measured and the percent specific cell lysis calculated. […] This is the primary of mechanism of action of SEA-BCMA and translates to specific enhanced anti-MM lysis. It is expected that this will translate to improvements in anti-MM activity in the clinic when SEA-BCMA is combined with GSIs."}, "[5]": {"test_system": "BCMA-expressing NCI-H929 cells", "assay": "NF-κB p65 activity ELISA of nuclear extract (TransAM NFκB Chemi p65)", "format": "cell-based", "description": "The secondary mechanism of action of SEA-BCMA is to block BCMA proliferative cell signaling. Increased BCMA from GSI treatment is expected to induce increased BCMA signaling. Therefore, the block of this enhanced signaling by SEA-BCMA was tested. BCMA-expressing NCI-H929 cells were serum-starved with and without 0.2 μM Nirogacestat (purchased from SelleckChem) for 16 hrs. Cells were then bound with and without 20 μg/mL SEA-BCMA and incubated with and without 1 μg/ml recombinant human APRIL (R&D Systems) for 20 minutes at 37° C. in the presence or absence of 0.2 μM Nirogacestat. 1 μg of nuclear extract was assayed in duplicate for NF-κB p65 activity by ELISA (TransAM NFκB Chemi p65, Active Motif)."}, "[6]": {"test_system": "Multiple myeloma cells", "assay": "BCMA expression after nirogacestat incubation", "format": "cell-based", "conditions": "0.2 μM nirogacestat, 24 hours, vs without", "excerpt": "as §1"}, "[7]": {"test_system": "U266", "assay": "BCMA expression by flow cytometry after Nirogacestat incubation", "format": "cell-based", "conditions": "0.2 μM Nirogacestat, 24 hrs"}, "[8]": {"test_system": "Molp-8 cells", "assay": "BCMA expression by flow cytometry after GSI incubation", "format": "cell-based", "conditions": "1 μM DAPT, 24 hrs, vs without"}, "[9]": {"test_system": "Molp-8 cells", "assay": "FcγRIII signaling surrogate assay (Promega ADCC reporter bioassay, CD16A-Jurkat effector cells)", "format": "cell-based", "conditions": "antibody dose titrations +/- GSI (DAPT), 6:1 effector-to-target ratio, overnight", "description": "(§2) NCI-H929 or Molp-8 MM target cells were incubated with and without 1 μM DAPT for 24 hrs. […] FcγRIII signaling was determined using a surrogate assay as manufacturer describes (Promega ADCC reporter bioassay cat #G9302). Cells were bound with antibody dose titrations+/−GSI for 30 minutes at 37° C. CD16A-Jurkat effector cells were then added with a 6:1 effector-to-target cell ratio. After an overnight incubation, the assay was developed with Bio-Glo and relative luminescence units (RLU) were measured on an Envision plate reader. […] Enhanced signaling is the first step in the primary mechanism of action of SEA-BCMA. This signaling can translate to increased anti-MM cell lysis through ADCC."}, "[10]": {"test_system": "NCI-H929 cells", "assay": "FcγRIII signaling surrogate assay (Promega ADCC reporter bioassay, CD16A-Jurkat effector cells)", "format": "cell-based", "conditions": "antibody dose titrations +/- GSI (DAPT), 6:1 effector-to-target ratio, overnight", "description": "as §2"}, "[11]": {"test_system": "NCI-H929 cells", "assay": "BCMA expression by flow cytometry after GSI incubation", "format": "cell-based", "conditions": "1 μM DAPT, 24 hrs, vs without"}, "[12]": {"test_system": "patients with RRMM", "method": "This study evaluated the safety and antitumor activity of SEA-BCMA in patients with RRMM.\nThe monotherapy dose-escalation portion of the trial was conducted in approximately 25 patients.\nEnrollment in this study occurred on a cohort-by-cohort basis. Multiple cohorts were treated at each dose level, with a maximum of 4 patients treated per cohort. Decisions on dose escalation and subsequent cohort size were made in consultation with the safety monitoring committee (SMC) after completion of each cohort. […] In addition, as a precaution, for the first 2 patients in the study there was a 72-hour observation period before the next patient can be dosed. At dose levels above Dose Level 1, a 24-hour observation period was required after the first patient received their first dose of SEA-BCMA, prior to dosing subsequent patients at that dose level. […] Patients who were considered not evaluable for DLT during Cycle 1 were replaced. […] The MTD or optimal dose was estimated based on data from all patients across all evaluated doses.\nSEA-BCMA was initially administered once every 2 weeks (q2wk) in 4-week cycles at the planned doses shown in Table 2; a dosing interval of every 4 weeks (q4wk) was explored.\nTo further characterize the safety and antitumor activity of SEA-BCMA, an expansion cohort of up to approximately 40 patients were enrolled.\nThe DLT-evaluation period was the first cycle of treatment. […] In the event of a Grade 3 IRR in ≥20% of patients (i.e., 2 or more in the first 10 patients), all subsequent patients will require premedication and/or modification of infusion approach per the recommendation of the SMC."}, "[13]": {"biological_target": "FcγRIII (Homo sapiens, UniProt P08637)", "sequence (P08637 17-254)": "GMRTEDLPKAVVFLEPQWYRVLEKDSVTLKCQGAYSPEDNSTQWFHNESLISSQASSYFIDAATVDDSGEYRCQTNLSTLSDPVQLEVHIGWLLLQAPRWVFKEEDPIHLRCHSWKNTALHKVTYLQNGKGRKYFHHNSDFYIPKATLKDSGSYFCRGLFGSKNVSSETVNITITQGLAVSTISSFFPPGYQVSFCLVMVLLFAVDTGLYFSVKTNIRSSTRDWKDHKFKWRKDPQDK", "assay": "FcγRIII binding affinity versus fucosylated anti-BCMA antibodies", "conditions": "in comparison to fucosylated anti-BCMA antibodies"}, "[14]": {"conditions": "patients receiving nirogacestat"}}, "note": "Values joined by “and” are separate entries in the source; they are usually repeats but may differ in a detail not shown here. Identical values can stand only once."}
{"compound": "CCC[C@H](N[C@H]1CCc2cc(F)cc(F)c2C1)C(=O)Nc1cn(C(C)(C)CNCC(C)(C)C)cn1", "note": "[nirogacestat, (S)-2-(((S)-6,8-difluoro-1,2,3,4-tetrahydronaphthalen-2-yl)amino)-N-(1-(2-methyl-1-(neopentylamino)propan-2-yl)-1H-imidazol-4-yl)pentanamide]", "values": [{"measurement": "Cmin at steady-state", "setting": "[1]", "result": "232 ng/mL and 471 nM"}, {"measurement": "Events of diarrhea", "setting": "[2]; [14]", "result": "commonly reported"}, {"measurement": "Events of skin rash", "setting": "[2]; [14]", "result": "reported"}, {"measurement": "Follicular cysts", "setting": "[2]; phase 2 study in desmoid patients conducted by the NCI (O'Sullivan Coyne, 2018)", "result": "observed"}, {"measurement": "ADCC", "setting": "[3]", "result": "increased ADCC"}, {"measurement": "ADCC (percent specific cell lysis)", "setting": "[4]", "result": "Increased ADCC"}, {"measurement": "NF-κB p65 signaling (RLU)", "setting": "[5]; 0.2 μM Nirogacestat 16 hrs serum-starved, +/- 1 μg/ml APRIL 20 minutes", "result": "increased NF-κB signaling"}, {"measurement": "BCMA expression", "setting": "[6]", "result": "increased BCMA expression"}, {"measurement": "BCMA expression", "setting": "[7]", "result": "increased BCMA expression"}]}
{"compound": "C[C@H](NC(=O)Cc1cc(F)cc(F)c1)C(=O)N[C@H](C(=O)OC(C)(C)C)c1ccccc1", "note": "[DAPT]", "values": [{"measurement": "BCMA expression", "setting": "[8]", "result": "increased BCMA expression"}, {"measurement": "FcγRIII signaling", "setting": "[9]", "result": "increased FcγRIII signaling"}, {"measurement": "FcγRIII signaling", "setting": "[10]", "result": "increased FcγRIII signaling"}, {"measurement": "BCMA expression", "setting": "[11]", "result": "increased BCMA expression"}]}
{"compound": "SEA-BCMA: non-fucosylated monoclonal anti-BCMA antibody, heavy chain SEQ ID NO: 13, light chain SEQ ID NO: 15", "values": [{"measurement": "Delayed-onset infusion-related reactions (IRRs)", "setting": "[12]; dose escalation cohort", "result": "no instances"}, {"measurement": "Safety profile at high doses", "setting": "[12]; high doses, e.g. 800 mg or 1600 mg per dose, initial results", "result": "tolerable safety profile"}, {"measurement": "MTD in dose escalation", "setting": "[12]; human, in vivo", "result": "without exceeding MTD"}, {"measurement": "Block of NF-κB signaling increased by Nirogacestat", "setting": "[5]; 20 μg/mL SEA-BCMA, 0.2 μM Nirogacestat, +/- 1 μg/ml APRIL", "result": "partially blocked"}, {"measurement": "FcγRIII binding affinity", "setting": "[13]", "result": "enhanced"}]}
